Some test systems named below: SN12C; MOLT-4; DU-145; SK-MEL-28; OVCAR-8; MDA-N; SW-620; HCT-15; HOP-62; TK-10; SK-MEL-2; U-251; KM12; Hs-578T; A498; MCF7; RPMI-8226; K562.
Assay in all cases: DTP human tumour cell line panel, 48 h

Here are results for 13 compounds from ChEMBL document CHEMBL1201862, “PubChem BioAssay data set” (2004).

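Assay format: 96-well plates, 48-hour exposure. Here, GI50 denotes the concentration required for 50% inhibition of growth.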 Calls of active or inactive are those of the source. Cut-off read from the data, not from the text of the source: active = GI50 up to about 1.1 µM and inactive = higher.

Consider `Cn1c(-c2ccccc2)cc2c3ccsc3c3ccsc3c21`, for which the GI50 (usually the concentration that inhibits growth by half) in the assay on SN12C is > 100 µM (inactive); in the assay on MOLT-4 it was 92.7 µM (inactive); with DU-145 it was > 100 µM (inactive); in the assay with SK-MEL-28, > 100 µM (inactive); with OVCAR-8, > 100 µM (inactive); with MDA-N, > 100 µM (inactive). Further, the GI50 in the assay on SW-620 was > 100 µM (inactive); with HCT-15, 29.2 µM; in the assay on HOP-62, > 100 µM (inactive); in the assay with TK-10, 21.3 µM (inactive); in the assay on SK-MEL-2, > 100 µM (inactive); with U-251, > 100 µM (inactive). For the same compound, the GI50 was 16.1 µM (inactive) with KM12; > 100 µM (inactive) in the assay on Hs-578T; > 100 µM (inactive) in the assay with A498; 4.75 µM (inactive) with MCF7; > 100 µM (inactive) in the assay on RPMI-8226.

As to `CC(=O)CC(O)(C(F)(F)Cl)C(F)(Cl)Cl` (configuration not stated), the GI50 in the assay with K562, in the assay on SN12C, in the assay with DU-145, with SK-MEL-28, in the assay with OVCAR-8 and in the assay with MDA-N was > 10 µM (inactive) throughout. In addition, the GI50 is > 10 µM (inactive) with SW-620; greater than 10 µM with HCT-15; > 10 µM (inactive) with HOP-62; > 10 µM (inactive) in the assay on TK-10; > 10 µM (inactive) with SK-MEL-2; > 10 µM (inactive) in the assay on U-251. The GI50 in the assay with KM12, in the assay with Hs-578T, in the assay on A498 and in the assay with MCF7 was > 10 µM (inactive) in each case.

With `COC(=O)C1=Nc2c(C)nn(-c3ccccc3)c2N=C(c2ccc([N+](=O)[O-])cc2)C1`, the GI50 in the assay with K562, in the assay on SN12C, with MOLT-4, in the assay with DU-145, in the assay on SK-MEL-28 and in the assay with OVCAR-8 was > 10 µM (inactive) throughout. Further, the GI50 with MDA-N is > 10 µM (inactive); with SW-620 it was > 10 µM (inactive); in the assay with HCT-15, greater than 10 µM; in the assay on HOP-62, > 10 µM (inactive); in the assay on TK-10 it was > 10 µM (inactive); in the assay on U-251 it was > 10 µM (inactive). Besides, the GI50 in the assay on KM12, in the assay on Hs-578T, with MCF7 and with RPMI-8226 was > 10 µM (inactive) throughout.

As for `Cc1cc(O)cc2c1c(=O)c1ccccc1n2C`, the GI50 in the assay with SN12C is > 100 µM (inactive); in the assay on MOLT-4 it was 55.1 µM (inactive); with DU-145, > 100 µM (inactive); with OVCAR-8 it was 31.7 µM (inactive); with MDA-N, > 100 µM (inactive); in the assay on SW-620, > 100 µM (inactive). Besides, the GI50 with HCT-15 is greater than 100 µM; in the assay with TK-10, 46.9 µM (inactive); with SK-MEL-2, > 100 µM (inactive); in the assay with U-251, 54.1 µM (inactive); with KM12, > 100 µM (inactive); in the assay with Hs-578T, 37.1 µM (inactive). Besides, the GI50 is 45.3 µM (inactive) in the assay on A498, > 100 µM (inactive) with MCF7 and > 100 µM (inactive) with RPMI-8226.

For `N=c1oc2c(Cl)cc(Cl)cc2cc1C(=O)Nc1cccc2ccccc12`, the GI50 was 13.3 µM (inactive) with K562; 3.58 µM (inactive) in the assay with SN12C; 7.48 µM (inactive) with MOLT-4; > 89.9 µM (inactive) in the assay with DU-145; > 80.9 µM (inactive) in the assay on SK-MEL-28; 3.44 µM (inactive) with OVCAR-8. The GI50 in the assay with MDA-N is 33 µM (inactive); with SW-620, 3.62 µM (inactive); with HCT-15 it was 10.3 µM; in the assay with HOP-62, 7.98 µM (inactive); with TK-10, 2.33 µM (inactive); in the assay with U-251 it was 2.73 µM (inactive). Moreover, the GI50 was 53.8 µM (inactive) in the assay with KM12; 7.94 µM (inactive) with Hs-578T; 7.62 µM (inactive) in the assay on A498; > 53.6 µM (inactive) in the assay with MCF7; 10 µM (inactive) in the assay with RPMI-8226.

For `O=C(/C=C/c1ccc(Cl)c(Cl)c1)Oc1ccc(/C=C2\CCCCC2=O)cc1`, the GI50 in the assay with SN12C is > 100 µM (inactive); in the assay on MOLT-4 it was 24.6 µM (inactive); with DU-145, > 100 µM (inactive); in the assay on SK-MEL-28, > 100 µM (inactive); in the assay with OVCAR-8 it was > 100 µM (inactive); in the assay with MDA-N, > 100 µM (inactive). The GI50 in the assay with SW-620 is > 100 µM (inactive); in the assay on HCT-15 it was greater than 100 µM; with HOP-62, > 100 µM (inactive); in the assay on TK-10 it was > 100 µM (inactive); in the assay with SK-MEL-2, > 100 µM (inactive); with U-251, > 100 µM (inactive). The GI50 with KM12 was > 100 µM (inactive); in the assay on Hs-578T, > 100 µM (inactive); in the assay on A498 it was > 100 µM (inactive); with MCF7 it was > 100 µM (inactive); with RPMI-8226, 67.6 µM (inactive).

As to `O=C1CCCCC1CN1CCCCC1` (configuration not stated), the GI50 with K562, with SN12C, in the assay on MOLT-4, in the assay with DU-145, in the assay on SK-MEL-28 and in the assay on OVCAR-8 was > 100 µM (inactive) each time. Also, the GI50 was > 100 µM (inactive) in the assay on MDA-N; > 100 µM (inactive) in the assay on SW-620; greater than 100 µM in the assay on HCT-15; > 100 µM (inactive) in the assay on HOP-62; > 100 µM (inactive) with TK-10; > 100 µM (inactive) with SK-MEL-2. Also, the GI50 in the assay with U-251, with KM12, with Hs-578T, in the assay on A498 and with MCF7 was > 100 µM (inactive) in each case.

As for `C#CCCCC(=O)N(C(=O)C[S+]([O-])CC)c1ccccc1` (configuration not stated), the GI50 in the assay with K562, in the assay with SN12C, with MOLT-4, in the assay on DU-145, in the assay on SK-MEL-28 and in the assay with OVCAR-8 was > 100 µM (inactive) throughout. The GI50 in the assay with MDA-N was > 100 µM (inactive); with SW-620 it was > 100 µM (inactive); in the assay with HCT-15, greater than 100 µM; in the assay with HOP-62 it was > 100 µM (inactive); with TK-10, > 100 µM (inactive); with SK-MEL-2 it was > 100 µM (inactive). Also, the GI50 in the assay with U-251, with KM12, with Hs-578T and with MCF7 was > 100 µM (inactive) each time.

For the compound `COc1ccc(N2C(=O)C3c4[nH]c5cc(Cl)ccc5c4C4CCC(C(C)(C)C)CC4C3C2=O)cc1` (configuration not stated), the GI50 with K562 was 33.6 µM (inactive); with SN12C it was 64.9 µM (inactive); in the assay with MOLT-4, 15.6 µM (inactive); in the assay with DU-145, > 100 µM (inactive); in the assay with SK-MEL-28, > 100 µM (inactive); in the assay with OVCAR-8, > 100 µM (inactive). For the same compound, the GI50 in the assay on MDA-N was > 100 µM (inactive); in the assay on SW-620, 69.8 µM (inactive); in the assay with HCT-15 it was 87.5 µM; in the assay with HOP-62, > 100 µM (inactive); in the assay with TK-10, > 100 µM (inactive); with U-251 it was 95.1 µM (inactive). Further, the GI50 is 65.8 µM (inactive) in the assay on KM12, 26.2 µM (inactive) in the assay on Hs-578T, 33.7 µM (inactive) with MCF7 and 53.2 µM (inactive) with RPMI-8226.

As to `COc1cc(C2OC(N)=C(C#N)C3=C2C(C)CCC3)cc(OC)c1OC` (configuration not stated), the GI50 is > 100 µM (inactive) with K562; > 100 µM (inactive) in the assay with SN12C; 34.2 µM (inactive) in the assay with MOLT-4; 95.9 µM (inactive) with DU-145; > 100 µM (inactive) in the assay with SK-MEL-28; 63 µM (inactive) in the assay on OVCAR-8. Besides, the GI50 was > 100 µM (inactive) in the assay on MDA-N; > 100 µM (inactive) in the assay on SW-620; greater than 100 µM in the assay on HCT-15; 12.7 µM (inactive) in the assay with HOP-62; > 100 µM (inactive) with TK-10; 71.8 µM (inactive) with SK-MEL-2. Moreover, the GI50 in the assay with U-251 is > 100 µM (inactive); in the assay with KM12, > 100 µM (inactive); with Hs-578T, 55.1 µM (inactive); in the assay on MCF7, > 100 µM (inactive); with RPMI-8226, > 100 µM (inactive).

Regarding `OC(c1ccc(F)cc1)C(F)(F)c1nc(-c2ccccc2)no1` (configuration not stated), the GI50 with SN12C is 21.6 µM (inactive); in the assay with DU-145 it was 21.2 µM (inactive); with SK-MEL-28, 21.1 µM (inactive); in the assay with OVCAR-8 it was > 100 µM (inactive); in the assay on MDA-N, 23.8 µM (inactive); in the assay with SW-620, 19.3 µM (inactive). Also, the GI50 with HCT-15 was 23.9 µM; with TK-10 it was 38.3 µM (inactive); in the assay on SK-MEL-2, 18.9 µM (inactive); in the assay on U-251, 0.126 µM (active); with Hs-578T, 30.5 µM (inactive); with A498 it was 22.6 µM (inactive). Also, the GI50 with MCF7 is 23.7 µM (inactive).

For the compound `CCc1n[nH]c(=O)[nH]1`, the GI50 in the assay with K562, in the assay with SN12C, in the assay on MOLT-4, in the assay with DU-145, in the assay with OVCAR-8 and with MDA-N was > 100 µM (inactive) throughout. The GI50 is greater than 100 µM in the assay with HCT-15; > 100 µM (inactive) in the assay on HOP-62; > 100 µM (inactive) with TK-10; > 100 µM (inactive) in the assay on SK-MEL-2; > 100 µM (inactive) in the assay on KM12; > 100 µM (inactive) in the assay with Hs-578T. Further, the GI50 in the assay on MCF7 is > 100 µM (inactive).

For `COC(=O)C1CC23CCCN4CCC5(c6ccccc6N(C=O)C15CC2)C43` (configuration not stated), the GI50 with SN12C, in the assay with MOLT-4, in the assay on DU-145, in the assay with SK-MEL-28, in the assay on OVCAR-8 and in the assay on MDA-N was > 100 µM (inactive) throughout. In addition, the GI50 is > 100 µM (inactive) in the assay with SW-620; greater than 100 µM with HCT-15; > 100 µM (inactive) in the assay on HOP-62; > 100 µM (inactive) in the assay on TK-10; > 100 µM (inactive) in the assay on SK-MEL-2; > 100 µM (inactive) in the assay with U-251. The GI50 in the assay on KM12, in the assay with Hs-578T, in the assay on A498, with MCF7 and in the assay on RPMI-8226 was > 100 µM (inactive) in each case.
